Consider three compounds from US4226885A, “Guanylhydrazones and medicaments containing them” (Choay S.A., priority 1977, dated 1980).

Read-outs that look alike come from different tables or passages of the source. Some results are limits rather than exact numbers.

The conditions of data set [1]: mouse; cited from earlier work.
Data set [2] addresses rat liver monoaminoxydase. Put plainly: I.M.A.O. activity: inhibition of rat liver monoaminoxydase (spectrophotometric, kynuramine as substratum). Type of data set: biochemical. To be noted: 50% inhibition. The method, then: The inhibiting activity of the envisaged guanyl hydrazones in relation to rat liver monoaminoxydase was determined by means of a spectrophotometric method, using kynuramine as substratum.
The I.M.A.O. activity was determined for various concentrations of guanyl hydrazone. The concentrations for which one obtains 50% inhibition relate to the pI 50, which is calculated as follows: […]
For each concentration about ten experiments are carried out, from which the mean activity Yi is determined. Only concentrations giving a Yi between 15 and 85% of activity are retained.
Assume N concentrations Ci retained; to each Ci there correspond a certain number ni of experiments and a mean activity Yi.
Assume in all NT=Σni experiments.
(a) The equation of the straight line Yi =f (Ci) is calculated by the method of least squares.
To this straight line there are attached different statistic tests to express its validity, as straight line only.
Then the corresponding concentration is deduced for Y=50%.
(b) Statistical calculations permit evaluation of the legitimacy of the linear model. These calculations take account of all the points, that is to say NT experiments, whereas the straight line is determined from the mean activities only, which means that these calculations take account of the dispersion which affects every average.
(c) Calculation of the confidence interval for α=0.05.
The pI50 s of the compounds 1 to 7 appearing in Table I above were calculated by application of the method as just described; they have been listed in Table II below: […]

A further data set relates to Lipidium sativum. In words: Inhibition of the growth of the root meristem of Lipidium sativum (vegetable cells). Type of data set: in vivo. The method, then: The test of the inhibition of the growth of the root meristem of Lipidium sativum was used, which test is used to evaluate the cytostatic action of series of drugs. It consists in placing germinated grains of Lipidium sativum in 15 ml. of aqueous solution containing 1% of methyl cellulose, in which the guanyl hydrazones are placed in suspension.
After leaving in darkness for 24 hours at the temperature of 27° C., the elongation of the root in comparison with that of a control batch (Li Lipidium sativum grain in methyl cellulose medium) is determined.
The validity of the linear model was evaluated with the aid of test F: [formula]
In the example supplied, for the calculation of the confidence interval for α=0.05, one finds:
that is to say one has five chances per hundred, if one repeats another series of measurements, of finding a pI 50 outside this limit.

Data set [3] has as its system fibro-sarcomas induced by methyl cholanthrene, tumour cells in culture. In words: Tumour culture: inhibition of multiplication of methyl cholanthrene-induced fibro-sarcoma cells in vitro. In kind it is cell-based. To be noted: Rattus norvegicus. The method, then:
A supplementary study of the activity of these products upon the inhibition of growth of animal cells was effected by tumour culture. On fibro-sarcomas induced by methyl cholanthrene (O. Flandre et coll. C.R. Jour. biol. 1966. 160 152) the products were tested: upon tumour cells in culture "in vitro" and upon treated rats.
1. upon tumour cells in culture "in vitro" the results of the tested products are reported in Table IV below, which expresses the cellular count at the 72nd hour after sub-culture, in the presence of the substances to be studied.
The results are expressed in percentage of diminution of the number of cells in comparison with the control.
The determinations were effected with the products at three molar concentrations: 10^-4, 10^-5 and 10^-6.
This concerns fibro-sarcomas induced by methyl cholanthrene according to a technique described by O. FLANDRE, I. CIURANA, J. SECCHI and M. DAMON: Reports of the Sittings of the Biology Society, Volume 160, No. 1, 1966, page 152.
The products can be tested either upon tumour cells cultivated in vitro, or upon the rat treated by tumour cell injections either in situ or by intraperitoneal injection.
The preliminary experiments carried out with the substances according to the invention, tested on tumour cells cultivated in vitro, disclose a retardation of the cellular multiplication.

The next data set concerns Rat fibroblast cultures. In words: Action upon cultures of trypsinised fibroblasts. Type of data set: cell-based. To be noted: read-out: percentage of inhibition in comparison with the control, heading: percentage of inhibition in comparison with the control, 10^-4 M, 48 and 72 hours. As to the method:
Rat fibroblast cultures are concerned and the strains have been maintained for several years.
For single-layer cultivation in Roux flasks, Trypsinisation at 0.25% detaches the cells from the flask on the one hand and from one another on the other hand.
The cells are distributed in lamellated tubes at the rate of 250,000 cells per ml., where they are deposited.
The products to be tested are introduced at different dilutions, and left to act for 48 and 72 hours.
Next, the counting of the cells is effected (10 fields for 5 blades) and the results obtained are compared with control tumours which have not received the product to be tested.

Data set [4] relates to rat embryo cultures (muscle fragment). Put plainly: Culture in explants: mitotic index of rat embryo cultures. Type of data set: cell-based. The method, then:
This concerns rat embryo cultures kept for at least 6 months (muscle fragment). The explants are placed in culture in plasma coagulum (cock plasma). The cultures are fed with nutrient medium (Hanx+embryonary extract+decomplemented calf foetus serum). 24 hours after placing in plasma coagulum, the product to be tested is added at different dilutions. The cultures are examined on the 4th day and the counting of the number of mitoses is effected in the growth zone of the explants. The percentage of each of the phases of the mitosis is determined for the whole (mitotic index).

The test system of a further data set is platelet aggregation. In words: Platelet anti-aggregant action (BORN's method). In kind it is cell-based, human or rabbit. To be noted: platelet-rich plasma, human blood or rabbit's blood; Table V; read-out: PI50 (platelet aggregation) (converted). The method, then:
The determination of the platelet aggregability was effected according to BORN's method, using a LABINTEC aggregometer.
Firstly a platelet-rich plasma (or PRP) and next a platelet-poor plasma (or PPP or PDP) are prepared from human blood or rabbit's blood, and the apparatus is calibrated.
Then the aggregating power of the plasma (PRP) is determined in relation to the PDP in the presence and in the absence of guanyl hydrazone. Thus it is possible to determine the percentage of inhibition of platelet aggregation as a function of the concentration. The curves obtained permit of determining a pI 50. […]

For data set [5], the system named is fibro-sarcomas induced by methyl cholanthrene, tumour cells in culture. Put plainly: Tumour culture: inhibition of multiplication of methyl cholanthrene-induced fibro-sarcoma cells in vitro. Type of data set: cell-based. To be noted: Rattus norvegicus, read-out: percentage of inhibition in comparison with the control; heading: percentage of inhibition in comparison with the control; B3 tumour culture, 10^-3 M.

The next data set deals with ADN. To be noted: cited from earlier work.
The subject of data set [6] is synthesis of nucleic acids. To be noted: cited from earlier work.
The subject of data set [7] is leukaemias, Hodgkin's disease. To be noted: cited from earlier work.

On to `N=C(N)NN=Cc1ccc([N+](=O)[O-])o1` [5-nitrofurfuraldehyde guanyl hydrazone], for which the anti-tumoral activity result in data set [1] was “a certain anti-tumoral activity in the mouse”.

As to `N=C(N)NN=CCOc1ccc(Cl)cc1` [Compound 4], the “pI 50” value in [2] is given as 4.70. Further, in the data set with Lipidium sativum (50% inhibition of root growth, 24 hours, 27° C., darkness), the “pI 50 (guanyl hydrazones)” value was 5.14±0.08. Also, the IC50 in the data set on Lipidium sativum (50% inhibition of root growth, 24 hours, 27° C., darkness, read-out: pI 50 (guanyl hydrazones) (converted)) is 7.24 µM; in the data set with platelet aggregation, 562 µM. The “inhibiting activity (root growth, in words)” value in the data set with Lipidium sativum (Lipidium sativum test) is “great inhibiting activity”. Moreover, the inhibition at 100 µM is 36.8% in data set [3] (72 h, 10^-4 molar, 72nd hour after sub-culture, read-out: percentage of diminution of the number of cells in comparison with the control); more than 30% in [3] (concentration of 10^-4 mol, read-out: retardation of the cellular multiplication); approximately 77% with Rat fibroblast cultures. In addition, the inhibition at 10 µM in data set [3] (72 h, 10^-5 molar, 72nd hour after sub-culture, read-out: percentage of diminution of the number of cells in comparison with the control) was determined as 23.7%. In addition, in data set [3] (72 h, 10^-6 molar, 72nd hour after sub-culture, read-out: percentage of diminution of the number of cells in comparison with the control), the inhibition at 1 µM worked out at 7.89%. Moreover, the mitotic index in data set [4] (4th day, control culture 2.5%) turned out to be 1.2%. The “number of mitoses at the metaphase level” value in data set [4] (vs control culture) was “significant reduction of the number of mitoses at the metaphase level”. Moreover, the inhibition at 1000 µM in data set [5] is approximately 45%.

Consider `CC(C=NNC(=N)N)=NNC(=N)N` [methyl-glyoxal-bis (guanyl hydrazone)], for which the “complex formation with ADN” value with ADN is recorded as “forms complexes with ADN”. Also, the “inhibition of nucleic acid synthesis” value in data set [6] is “inhibits the synthesis of nucleic acids”. Besides, the “action in Hodgkin's disease” value in [7] (Hodgkin's disease) was “sometimes but rarely efficacious”. Also, the “action in acute myeloblastic and promyelocytary leukaemias” value in [7] (acute myeloblastic and promyelocytary leukaemias) is on record as “action has been verified”. Besides, the “action in acute transformations of chronic myeloid leukaemia and other leukaemias” value in [7] (acute transformations of chronic myeloid leukaemia and other leukaemias) is “less efficacious”. In [7] (in vivo), the “side effects on administration” value is “various cutaneous, digestive and metabolic troubles, in particular hypoglycaemia”.
